Test [1] relates to Mycobacterium tuberculosis. The test is described as follows: Antituberculosis activity against Mycobacterium tuberculosis H37Rv at 12.5 ug/mL. The format is functional, organism-based.
The test system of test [2] is CCRF-CEM. The experiment in a line: Cytotoxicity against human CCRF-CEM cells. In kind it is functional.

Activity calls are given as the source filed them. The calls are words filed in the database; no cut-off is given here.

`C=C(C)[C@@H]1CCC2=C[C@H](C/C(C)=C\C3=CC(C)=C(O3)[C@H]1O)OC2=O`: the outcome in test [1] was inactive.

`C=C(C)[C@@H]1C[C@H]2O[C@](O)(C/C(C)=C\C(=O)/C=C(/C)C[C@@H]3OC(=O)[C@]24O[C@@H]34)[C@H]1O`: the result in test [1] was inactive.

On to `C=C(C)[C@H]1C(=O)[C@H]2O[C@@]2(C)C(=O)[C@@H](O)[C@H](C(=C)C)CCC2=C[C@H]1OC2=O`, for which the result in test [1] was inactive.

For `C=C(C(=O)OC)[C@@H]1C[C@@H](OC(C)=O)C2=C[C@H](C[C@@]3(C)O[C@@H]3C3=CC(C)=C(O3)[C@H]1OC(C)=O)OC2=O` [BIPINNATIN I], in test [2], growth was halved (GI50) at 42.7 nM. That is a double-digit nanomolar value.

For the molecule `C=C(C)[C@H]1C2=CC(C)=C(O2)[C@@H](O)[C@H](C(=C)C)CCC2=C[C@H]1OC2=O`, the result in test [1] was inactive.

Values taken from ChEMBL document CHEMBL1144106, “Highly oxygenated pseudopterane and cembranolide diterpenes from the Caribbean sea feather Pseudopterogorgia bipinnata” (1999).
